From US20040115813A1, “Real time measurement of cellular responses” (priority 2002, published 2004)

Columns and labels:
Format in all cases: cell-based, human
HT-1080-dual-6 cells = experiment: Real time observation of apoptotic process in vitro by fluorescence microscopy; settings: 2 μM staurosporine; for apoptosis induction: imaged every 2 hours up to 12 hours; for nuclear/cytoplasmic morphology during apoptosis: images at 2-12 hours
Experimental: HT-1080-dual-6 cells were incubated with 2 μM staurosporine for apoptosis induction. The cells were visualized under blue light and images were captured with a CCD camera and fluorescence microscope. […] Bar, 50 μm. […] Bar, 10 μm.
To capture the images of real time apoptotic processes, the HT-1080-dual-6 clone was used. Staurosporine (Alexis, San Diego, Calif.), dissolved in DMSO and stored at −80 degrees, was used for induction of apoptosis. 3×10^5 cells were seeded in a 25 cm^2 flask with RPMI 1640 with 10% FBS. Staurosporine was added the next day at a concentration of 2 μM. Every 2 hours, the flask was set under the fluorescent stereo microscope and real time images were captured at each time point.

PC-3 dual cells [1] = experiment: DNA extraction and agarose gel electrophoresis (1.8%) for DNA fragmentation; settings: Taxol 0.8 μg/ml
Experimental: (§1) PC-3 dual cells were treated with Taxol™ (0.8 ug/ml); thymidine (2 mM), and vinblastine (60 nM). Real-time imaging was done at 0, 12, 24, 36, and 48 hours. Cells were collected for DNA extraction and agarose gel electrophoresis (1.8%) analysis. […] The nuclear ring structures were […] by 24 hours.

PC-3 dual cells [2] = experiment: Real-time visualization of drug-induced apoptosis and nuclear morphology in dual-labeled cells
Text: The dual-color cells could be easily placed in their cell cycle position by the “nuclear-cytoplasmic” ratio as observed in living cells. For fluorescence microscopy of these cells, a Leica fluorescence stereo microscope model LZ12 equipped with a mercury 50W lamp power supply was used. To visualize both GFP and RFP fluorescence at the same time, excitation was produced through a D425/60 band pass filter, 470 DCXR dichroic mirror, and emitted fluorescence was collected through a long pass filter GG475 (Chroma Technology, Brattleboro, Vt.).
as §1

SMILES: CN[C@@H]1C[C@H]2O[C@@](C)([C@@H]1OC)n1c3ccccc3c3c4c(c5c6ccccc6n2c5c31)C(=O)NC4 [Staurosporine]
- apoptosis induction (HT-1080-dual-6 cells): induced apoptosis
- apoptosis induction (HT-1080-dual-6 cells; listed as staurosporine): Apoptosis was well induced
- nuclear/cytoplasmic morphology during apoptosis (HT-1080-dual-6 cells): Progressive fragmentation of nucleus
- nuclear/cytoplasmic morphology during apoptosis (HT-1080-dual-6 cells; listed as staurosporine): condensation of cytoplasm and nucleus and fragmentation of nucleus

SMILES: CC(=O)O[C@H]1C(=O)[C@@]2(C)[C@H]([C@H](OC(=O)c3ccccc3)[C@]3(O)C[C@H](OC(=O)[C@H](O)[C@@H](NC(=O)c4ccccc4)c4ccccc4)C(C)=C1C3(C)C)[C@]1(OC(C)=O)CO[C@@H]1C[C@@H]2O [Taxol™, Paclitaxel]
- DNA fragmentation by gel electrophoresis (PC-3 dual cells [1]; 24 hours): before DNA fragmentation occurred
- DNA fragmentation by gel electrophoresis (PC-3 dual cells [1]; 48 hours): DNA fragmentation could be observed
- effect on nuclei (morphology) (PC-3 dual cells [2]; Taxol 0.8 μg/ml, by 24 hours): form a ring-shaped structure
- apoptosis (aberrant nuclear structures and fragmentation) (PC-3 dual cells [2]; Taxol 0.8 μg/ml, by 48 hours): entering apoptosis with very aberrant nuclear structures and fragmentation

SMILES: CC[C@]1(O)C[C@@H]2CN(CCc3c([nH]c4ccccc34)[C@@](C(=O)OC)(c3cc4c(cc3OC)N(C)[C@H]3[C@@](O)(C(=O)OC)[C@H](OC(C)=O)[C@]5(CC)C=CCN6CC[C@]43[C@@H]65)C2)C1 [vinblastine]
- effect on cell nuclei and cytoplasm (morphology) (PC-3 dual cells [2]; vinblastine 60 nM): nuclei became more condensed and the cytoplasm appeared to expand
